The term Kd denotes the equilibrium constant for the complex coming apart.

The text below walks through data of ChEMBL document CHEMBL1143236, “Design, synthesis, FGF-1 binding, and molecular modeling studies of conformationally flexible heparin mimetic disaccharides” (Bioorg Med Chem Lett, 2008).

The target in this test is Fibroblast growth factor 1 (Homo sapiens, UniProt P05230). Put plainly: Binding affinity at FGF1.
Chain of Fibroblast growth factor 1 (P05230 whole entry): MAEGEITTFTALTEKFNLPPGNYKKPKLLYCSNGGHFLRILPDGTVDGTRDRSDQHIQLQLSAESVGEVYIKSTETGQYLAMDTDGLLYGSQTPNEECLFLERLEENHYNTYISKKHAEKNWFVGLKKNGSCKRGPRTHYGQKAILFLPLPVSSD
In turn, `CO[C@@H]1OC[C@@H](O[C@H]2O[C@H](CO)[C@H](O)[C@H](O)[C@H]2OS(=O)(=O)O)[C@H](OS(=O)(=O)O)[C@H]1OS(=O)(=O)O` returned an equilibrium dissociation constant (Kd) of 1400 µM.
To `CO[C@@H]1O[C@H](COS(=O)(=O)O)[C@@H](O[C@H]2O[C@H](COS(=O)(=O)O)[C@H](OC)[C@H](OC)[C@H]2OS(=O)(=O)O)[C@H](OS(=O)(=O)O)[C@H]1OS(=O)(=O)O` belongs 47.9 µM.
The value for `CO[C@@H]1O[C@H](COS(=O)(=O)O)[C@@H](O[C@H]2O[C@H](CO)[C@H](O)[C@H](O)[C@H]2OS(=O)(=O)O)[C@H](OS(=O)(=O)O)[C@H]1OS(=O)(=O)O` was 77.5 µM.
The value for `CO[C@@H]1O[C@H](COS(=O)(=O)O)[C@@H](O[C@H]2O[C@H](COS(=O)(=O)O)[C@H](O)[C@H](O)[C@H]2OS(=O)(=O)O)[C@H](OS(=O)(=O)O)[C@H]1OS(=O)(=O)O` was 21.8 µM; that for `COC[C@H]1O[C@H](O[C@H]2[C@H](OS(=O)(=O)O)[C@@H](OS(=O)(=O)O)[C@H](OC)O[C@@H]2COS(=O)(=O)O)[C@H](OS(=O)(=O)O)[C@@H](OC)[C@H]1OC` was 233 µM.
